Consider 14 compounds from patent US11999699B2, “Substituted pyrazole amides” (GRUENENTHAL GMBH, priority 2021, dated 2024).

pIC50: −log10 of the molar value.

For orientation: pIC50 means the IC50 on a negative log10 scale, so that one unit is a factor of ten.

T1 sequence (Q9Y5Y9 whole entry): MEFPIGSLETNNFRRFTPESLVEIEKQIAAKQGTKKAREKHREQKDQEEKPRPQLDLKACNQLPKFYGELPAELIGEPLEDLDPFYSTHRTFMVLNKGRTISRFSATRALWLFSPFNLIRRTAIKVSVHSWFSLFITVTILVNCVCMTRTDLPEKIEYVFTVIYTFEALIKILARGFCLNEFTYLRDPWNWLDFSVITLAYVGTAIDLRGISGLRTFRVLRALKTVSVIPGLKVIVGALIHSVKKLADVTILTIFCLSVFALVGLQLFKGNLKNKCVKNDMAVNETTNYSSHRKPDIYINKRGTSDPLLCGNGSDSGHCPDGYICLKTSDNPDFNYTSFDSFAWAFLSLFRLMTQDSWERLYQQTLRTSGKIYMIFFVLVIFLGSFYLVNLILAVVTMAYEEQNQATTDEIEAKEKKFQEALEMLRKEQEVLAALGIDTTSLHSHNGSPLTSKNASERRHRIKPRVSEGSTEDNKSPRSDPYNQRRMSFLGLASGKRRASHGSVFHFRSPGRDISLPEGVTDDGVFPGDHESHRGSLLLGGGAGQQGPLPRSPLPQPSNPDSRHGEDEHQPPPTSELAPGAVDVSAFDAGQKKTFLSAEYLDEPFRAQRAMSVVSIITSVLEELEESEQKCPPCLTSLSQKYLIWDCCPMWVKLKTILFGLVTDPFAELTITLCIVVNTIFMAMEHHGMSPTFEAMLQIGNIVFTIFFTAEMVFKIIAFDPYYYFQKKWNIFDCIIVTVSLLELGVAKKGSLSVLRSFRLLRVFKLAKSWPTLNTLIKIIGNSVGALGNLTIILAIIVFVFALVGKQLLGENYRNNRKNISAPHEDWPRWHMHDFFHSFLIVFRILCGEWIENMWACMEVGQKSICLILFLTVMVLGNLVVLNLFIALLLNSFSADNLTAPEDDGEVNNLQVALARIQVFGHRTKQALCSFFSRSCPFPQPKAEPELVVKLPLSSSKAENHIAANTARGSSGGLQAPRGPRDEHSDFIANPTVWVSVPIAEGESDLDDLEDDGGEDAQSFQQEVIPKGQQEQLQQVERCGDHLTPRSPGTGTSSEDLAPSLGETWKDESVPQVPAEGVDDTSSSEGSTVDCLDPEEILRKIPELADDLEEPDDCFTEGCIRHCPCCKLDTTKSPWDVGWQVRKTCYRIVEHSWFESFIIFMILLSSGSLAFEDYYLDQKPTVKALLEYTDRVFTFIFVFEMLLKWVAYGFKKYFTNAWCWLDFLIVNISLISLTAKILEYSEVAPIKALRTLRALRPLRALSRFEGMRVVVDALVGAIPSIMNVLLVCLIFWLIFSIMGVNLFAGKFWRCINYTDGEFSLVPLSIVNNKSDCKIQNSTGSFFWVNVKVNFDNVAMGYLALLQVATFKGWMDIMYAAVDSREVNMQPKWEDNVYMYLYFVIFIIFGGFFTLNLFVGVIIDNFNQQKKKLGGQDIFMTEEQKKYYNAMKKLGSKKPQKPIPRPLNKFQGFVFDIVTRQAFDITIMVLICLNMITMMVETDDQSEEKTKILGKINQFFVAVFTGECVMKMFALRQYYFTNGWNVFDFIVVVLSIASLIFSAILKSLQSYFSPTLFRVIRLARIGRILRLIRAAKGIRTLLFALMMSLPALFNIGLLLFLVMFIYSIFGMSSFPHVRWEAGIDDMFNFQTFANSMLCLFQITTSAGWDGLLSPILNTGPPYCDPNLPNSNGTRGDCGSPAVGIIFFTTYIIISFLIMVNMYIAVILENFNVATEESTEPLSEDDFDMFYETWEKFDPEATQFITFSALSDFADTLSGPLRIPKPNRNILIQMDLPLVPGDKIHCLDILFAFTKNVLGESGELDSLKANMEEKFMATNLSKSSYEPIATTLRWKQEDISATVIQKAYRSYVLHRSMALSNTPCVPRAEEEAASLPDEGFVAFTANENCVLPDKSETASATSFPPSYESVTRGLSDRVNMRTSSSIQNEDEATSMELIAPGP
T1 sequence (Q9NY72 23-215 partner): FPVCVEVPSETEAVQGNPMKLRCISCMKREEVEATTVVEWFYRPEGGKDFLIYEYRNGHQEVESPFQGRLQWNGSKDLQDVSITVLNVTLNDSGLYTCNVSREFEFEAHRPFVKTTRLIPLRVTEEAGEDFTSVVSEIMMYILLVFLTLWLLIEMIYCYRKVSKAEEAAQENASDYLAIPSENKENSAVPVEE

The experiment has as its target T1, human NaV1.8 (Homo sapiens, UniProt Q9Y5Y9).
T1 construct: The following NaV1.8 recombinant cell line was used for recordings: HEK-NaV1.8 (NM 006514.1); expressed in transfected cells; host or cells: HEK (recombinant cell line HEK-NaV1.8)
Put plainly: Electrophysiology: automated whole-cell voltage-clamp (patch clamp, Qube384) recordings of sodium currents in HEK-NaV1.8 cells. It counts as cell-based. The following applies: potency data either taken from inactivated or resting state, read-out: Potency category (human NaV1.8 IC50). The gist of the method:
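Automated whole-cell patch clamp at room temperature on HEK cells expressing human NaV1.8, with 0.3% DMSO vehicle controls. State-dependent protocol from −120 mV tested resting (P1) and half-inactivated (P2, 4 s at V1/2) channels, plus 40-pulse trains at 10 and 20 Hz. Values after ~12 min compound exposure were normalised to baseline and corrected for vehicle run-down; IC50 from a 4-parameter logistic fit, taken from inactivated or resting state.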
For orientation: In patch-clamp work, channel activity is measured electrically.
Take `CS(=O)(=O)c1cc(NC(=O)c2c(C(F)(F)F)c(C3CC3)nn2CC2CCCO2)ccn1` (centres unmarked) [SC-263, 3-cyclopropyl-N-(2-(methylsulfonyl)pyridin-4-yl)-1-((tetrahydrofuran-2-yl)methyl)-4-(trifluoromethyl)-1H-pyrazole-5-carboxamide]: the pIC50 was 6.00 to 7.00.
Take `Cc1c(C(C)(F)F)nn(CC2(C)CC(F)(F)C2)c1C(=O)Nc1ccnc(S(C)(=O)=O)c1` [SC-210, 1-((3,3-difluoro-1-methyleyclobutyl)methyl)-3-(1,1-difluoroethyl)-4-methyl-N-(2-(methylsulfonyl)pyridin-4-yl)-1H-pyrazole-5-carboxamide]: the pIC50 is ≥ 7.00.
For `CS(=O)(=O)c1cccc(NC(=O)c2c(C(F)(F)F)cnn2CC2CCCC(F)(F)C2)c1` (centres unmarked) [SC-23, 2-[(3,3-difluorocyclohexyl)methyl]-N-(3-methylsulfonylphenyl)-4-(trifluoromethyl)pyrazole-3-carboxamide], the pIC50 is 6.00 to 7.00.
`NC(=O)c1cc(NC(=O)c2c(C(F)(F)F)c(C3CC3)nn2CC2CC(F)(F)C2)ccc1F` [SC-274, N-(3-carbamoyl-4-fluorophenyl)-3-cyclopropyl-1-((3,3-difluorocyclobutyl)methyl)-4-(trifluoromethyl)-1H-pyrazole-5-carboxamide]: the pIC50 is ≥ 7.00.
Regarding `CC1CC(Cn2nc(C3CC3)c(C(F)(F)F)c2C(=O)Nc2ccnc(C(N)=O)c2)CCO1` (centres unmarked) [SC-135, 4-(3-cyclopropyl-1-((2-methyltetraliydro-2H-pyran-4-yl)methyl)-4-(trifluoromethyl)-1H-pyrazole-5-carboxamido)picolinamide], the pIC50 was ≥ 7.00.
The result for `NS(=O)(=O)c1cccc(NC(=O)c2c(C(F)(F)F)c(C3CC3)nn2CC2CC(F)(F)C2)c1` [SC-276, 3-cyclopropyl-1-((3,3-difluorocyclobutyl)methyl)-N-(3-sulfamoyIphenyl)-4-(trifluoromethyl)-lH-pyrazole-5-carboxamide] reads ≥ 7.00.
Then `Cc1nn(CC2CCC(F)(F)CC2)c(C(=O)Nc2cncc(S(C)(=O)=O)c2)c1C(F)(F)F` [SC-241, 1-((4,4-difluorocyclohexyl)methyl)-3-methyl-N-(5-(methyisulfonyl)pyridin-3-yl)-4-(trifluoromethyl)-1H-pyrazole-5-carboxamide], with 6.00 to 7.00; and `CS(=O)(=O)c1cccc(NC(=O)c2cc(C#N)nn2CC2CCCCC2)c1` [SC-38, 5-cyano-2-(cyclohexylmethyl)-N-(3-methylsulfonylphenyl)pyrazole-3-carboxamide], with 6.00 to 7.00; and `NS(=O)(=O)c1cccc(NC(=O)c2c(C(F)(F)F)c(C3CC3)nn2CC2CCCCO2)c1` (centres unmarked) [SC-264, 3-cyclopropyl-N-(3-sulfamoylphenyl)-1-((tetrahydro-2H-pyran-2-yl)methyl)-4-(trifluoromethyl)-1H-pyrazole-5-carboxamide], with ≥ 7.00.
With `Cc1c(C(C)(F)F)nn(CC2(C)CCC(F)(F)C2)c1C(=O)Nc1ccnc(C(N)=O)c1` (single isomer, unassigned) [SC-214a], the pIC50 is ≥ 7.00.
With `NC(=O)c1cc(NC(=O)c2c(C(F)(F)F)cnn2CC2CCCCC2)ccc1F` [SC-35, N-(3-carbamoyl-4-fluorophenyl)-1-(cyclohexylmethyl)-4-(trifluoromethyl)-1H-pyrazole-5-carboxamide], the pIC50 is ≥ 7.00.
Regarding `NC(=O)c1cccc(NC(=O)c2c(C(F)(F)F)cnn2CC2CCC(F)(F)CC2)c1` [SC-41, N-(3-carbamoylphenyl)-2-[(4,4-difluorocyclohexyl)methyl]-4-(trifluoromethyl)pyrazole-3-carboxamide], the negative-log IC50 (pIC50) is 6.00 to 7.00.
The result for `NC(=O)c1cc(NC(=O)c2c(Cl)c(C(F)(F)F)nn2CC2CCC(F)(F)C2)ccn1` (single isomer, unassigned) [SC-160a] reads ≥ 7.00; that for `CS(=O)(=O)c1cccc(NC(=O)c2cc(C(F)(F)F)nn2CC2CCCC2)c1` [SC-03, 2-(cyclopentylmethyl)-N-(3-methylsulfonylphenyl)-5-(trifluoromethyl)pyrazole-3-carboxamide], 6.00 to 7.00.
